The test system of data set [1] is complement serum (guinea pig complement). Description: Anti-complement activity: 50% inhibition of hemolysis of sensitized erythrocytes. The format is cell-based. The following applies: 37° C., 60 minutes, guinea pig complement diluted 150 times; for IC50: Cavia porcellus, Erythrocyte, 1 h, OD413, read-out: Anti-Complement Activity Value (50% hemolysis inhibitory activity value). How it is done:
The anti-complement activity was measured and confirmed by the testing method described in Meneki Kagaku (Immuno-Chemistry), Yuichi Yamamura et al., Ed. pages 830-834, Asakura Shoten, Tokyo, Japan (1973). Specifically,a test tube was charged with 0.5 ml of an aqueous dispersion of each of the test compounds, 0.5 ml of sensitized erythrocytes (EA) containing 1×10^8 cells/ml, 1 ml of a 5-fold diluted solution of a Veronal buffer solution containing gelatin, Ca^++ and Mg^++ (GVB^++), and 0.5 ml of complement serum (guinea pig complement) diluted to 150 times with the GVB^++. The mixture was maintained hot at 37° C. for 60 minutes. Then, 5 ml of an ice-cold physiological saline solution was added thereto, and the mixture was centrifuged. […] The 50% hemolysis inhibitory activity value (γ/ml) measured by the above method is shown in Table 2 below for each test compound.

Data set [2] can be described thus: Acute toxicity on intravenous administration to mice. The note with it: mouse, in vivo.
In another data set the test system is Heymann-type Nephritis. Kind of data set: Therapeutic effects on Heymann-type nephritis (proteinuria). The following applies: for activity of curing Heymann-type nephritis: test of Table 4, result in words; for amount of proteinurea, Average: average of 3 replications; for amount of proteinurea: individual replication. It is filed as in vivo, male Wistar rats. How it is done:
Male Wistar rats with a body weight of 180 to 200 g were used in the test. Rat kidney cortex was extracted, and homogenized with an equal quantity by volume of a physiological saline solution. The homogenate was centrifuged at 1500 G for 1 hour. The supernatant liquid was purified in accordance with the method of T. S. […] The resulting mixture was injected intraperitoneally into isologous rats in an amount of 0.5 ml per rat. […] (This period was about 6 to 8 weeks.) […] CP was used as a comparison compound, and physiological saline solution was used as a control. Three replications were conducted for each test compound.

The test system of data set [3] is Nephrotoxin-Type Nephritis. Description: Therapeutic effect on nephrotoxin-type nephritis (proteinuria). The format is in vivo, male Wistar rats. The following applies: for inhibition of the primary reaction of nephrotoxin-type nephritis: same test as Table 3; for amount of proteinurea, Average: average of 3 replications; for amount of proteinurea, Average / amount of proteinurea: 5 mg per rat i.p. once daily, 7 days; for amount of proteinurea: individual replication. An excerpt:
Rat nephrotoxin ("NT" for brevity) was obtained as described below. Rat kidney cortex was homogenized with an equal quantity of physiological saline. The homogenized mixture was mixed with Freund's complete adjuvant (a product of Difco Company) in a volume ratio of 1:1. Two milliliters of the resulting mixture was intramuscularly injected into a rabbit (body weight 3,100 g) to immunize the rabbit. A month and a half later, blood was taken from the heart of the rabbit and serum was obtained. The resulting serum was inactivated at 56° C. for 30 minutes, then salted out with a 40% saturated aqueous solution of ammonium sulfate, and fractionated. The γ-globulin (IgG) fraction was collected to obtain NT.
The evaluation was carried out using male Wistar rats with a body weight of 150 to 160 g with three replications for each test compound. The test compound was intraperitoneally administered once every 24 hours for seven days. One hour after the administration of the test compound on the third day, the NT was applied. The NT was intravenously injected in an amount of 1 ml at a tail vein of each rat. Chlorophyllin (CP) was used as a comparison compound, and physiological saline solution was used as a control.
The proteinuria level (total amount excreted into the urine over a 24 hour period) was measured using turbidometry employing bovine serum albumin as a control by means of sulfosalicylic acid.

The mark [4] stands for this setting: Before Administration, group of 5 mg per rat i.p.
The mark [5] stands for this setting: Day 1, 5 mg per rat i.p. once a day, 7 days.
The mark [6] stands for this setting: Day 4, 5 mg per rat i.p. once a day, 7 days.
[7] abbreviates: Day 7, 5 mg per rat i.p. once a day, 7 days.
Setting [8] is: Day 14, 5 mg per rat i.p. once a day, 7 days.
Setting [9] is: Day 21, 5 mg per rat i.p. once a day, 7 days.

Values joined by “and” are separate entries in the source; they are usually repeats but may differ in a detail not shown here. Equal entries are not always repeated.

9 molecules from patent US4229466A, “Sesquiterpene derivatives having anti-complementary activity” (Otsuka Pharmaceutical Co., Ltd., priority 1977, dated 1980) can be followed below.

For the molecule `CC1CCC2C(C)(C)C(O)C(O)CC2(C)C12Cc1c(O)cc(O)c(O)c1O2` (stereo not shown) [(2), 6,7-Dihydroxy-2,5,5,8a-tetramethyl-1,2,3,4,4a,5,6,7,8,8a-decahydronaphthalene-1-spiro-2'-(4',6',7'-trihydroxy-2',3'-dihydrobenzofuran)], the IC50 in data set [1] was found to be 80 mg/L. For the same molecule, the LD50 (as a rule, the dose at which mortality reaches 50%) in data set [2] stood at 150 mg/kg.

Take `CC1CCC2C(C)(C)C(O)C(O)CC2(C)C12Cc1c(O)cc(C=C(C#N)C#N)c(C=C(C#N)C#N)c1O2` (stereo not shown) [(3), 6,7-Dihydroxy-2,5,5,8a-tetramethyl-1,2,3,4,4a,5,6,7,8,8a-decahydronaphthalene-1-spiro-2'-[6',7'-di-(2,2-dicyanovinyl)-4'-hydroxy-2',3'-dihydrobenzofuran]]: the IC50 in data set [1] worked out at 40 mg/L. Moreover, the LD50 in data set [2] stood at 200 mg/kg.

As for `CCOC(=O)C(C#N)=Cc1cc(O)c2c(c1C=C(C#N)C(=O)OCC)OC1(C2)C(C)CCC2C(C)(C)C(O)C(O)CC21C` (stereo not shown) [(4), 6,7-Dihydroxy-2,5,5,8a-tetramethyl-1,2,3,4,4a,5,6,7,8,8a-decahydronaphthalene-1-spiro-2'-[6',7'-di-(2-cyano-2-ethoxycarbonylvinyl)-4'-hydroxy-2',3'-dihydrobenzofuran]], the IC50 in data set [1] worked out at 80 mg/L. In data set [2], this molecule had an LD50 of 200 mg/kg.

Take `CC1CCC2C(C)(C)C(O)C(O)CC2(C)C12Cc1c(O)cc(CO)c(C(=O)O)c1O2` (stereo not shown) [(8), 6,7-Dihydroxy-2,5,5,8a-tetramethyl-1,2,3,4,4a,5,6,7,8,8a-decahydronaphthalene-1-spiro-2'-(7'-carboxy-6'-hydroxymethyl-4'-hydroxy-2',3'-dihydrobenzofuran)]: the “activity of curing Heymann-type nephritis” value with Heymann-type Nephritis is “a substantial activity of curing Heymann-type nephritis”. Also, the IC50 in data set [1] came out at 125 mg/L. In addition, the “inhibition of the primary reaction of nephrotoxin-type nephritis” value (“inhibition” for short) in data set [3] (result in words) is reported as “found to inhibit the primary reaction”.

Regarding `CC1CCC2C(C)(C)C(O)C(O)CC2(C)C12Cc1c(O)cc(CO)c(CO)c1O2` (stereo not shown) [(11), 6,7-Dihydroxy-2,5,5,8a-tetramethyl-1,2,3,4,4a,5,6,7,8,8a-decahydronaphthalene-1-spiro-2'-(6',7'-dihydroxymethyl-4'-hydroxy-2',3'-dihydrobenzofuran)], the “activity of curing Heymann-type nephritis” value with Heymann-type Nephritis is recorded as “a substantial activity of curing Heymann-type nephritis”. In addition, in data set [1], the IC50 came to 500 mg/L. Also, in data set [3] (result in words), the “inhibition” value is “found to inhibit the primary reaction”.

With `COc1cc(CO)c(CO)c2c1CC1(O2)C(C)CCC2C(C)(C)C(O)C(O)CC21C` (stereo not shown) [(12), 6,7-Dihydroxy-2,5,5,8a-tetramethyl-1,2,3,4,4a,5,6,7,8,8a-decahydronaphthalene-1-spiro-2'-(6',7'-dihydroxymethyl-4'-methoxy-2',3'-dihydrobenzofuran)], the “activity of curing Heymann-type nephritis” value in the data set with Heymann-type Nephritis is on record as “a substantial activity of curing Heymann-type nephritis”. In addition, in data set [1], the IC50 is 250 mg/L. Also, in data set [3] (result in words), the “inhibition” value is given as “found to inhibit the primary reaction”.

For `CC(=O)OCc1cc(OC(C)=O)c2c(c1COC(C)=O)OC1(C2)C(C)CCC2C(C)(C)C(OC(C)=O)C(OC(C)=O)CC21C` (stereo not shown) [Compound No. (25), 6,7-Diacetyloxy-2,5,5,8a-tetramethyl-1,2,3,4,4a,5,6,7,8,8a-decahydronaphthalene-1-spiro-2'-(6',7'-diacetyloxymethyl-4'-acetyloxy-2',3'-dihydrobenzofuran)], the “activity of curing Heymann-type nephritis” value in the data set on Heymann-type Nephritis is “a substantial activity of curing Heymann-type nephritis”. Further, in data set [1], the IC50 amounted to 600 mg/L. The “inhibition” value in data set [3] (result in words) is recorded as “found to inhibit the primary reaction”.

Regarding `CC1CCC2C(C)(C)C3OC(C)(C)OC3CC2(C)C12Cc1c(O)cc3c(c1O2)C(=O)OC3` (stereo not shown) [Compound No. (62), 4-Hydroxy-8-oxo-2,3,6,8-tetrahydro-furo[3,4-g]benzofuran-2-spiro-1'-(6',7'-isopropylidenedioxy-2',5',5',8'a-tetramethyl-1',2',3',4',4'a,5',6',7',8',8'a-decahydronaphthalene)], the “activity of curing Heymann-type nephritis” value in the data set on Heymann-type Nephritis is listed as “a substantial activity of curing Heymann-type nephritis”. Also, the IC50 in data set [1] turned out to be 450 mg/L. In data set [3] (result in words), the “inhibition” value was “found to inhibit the primary reaction”.

Turning to Chlorophyllin [reference compound], the “amount of proteinurea, Average” value worked out at 123 mg/day in the data set on Heymann-type Nephritis (setting [4]); 115 mg/day in the data set on Heymann-type Nephritis (setting [5]); 62 mg/day in the data set on Heymann-type Nephritis (setting [6]); 28 mg/day with Heymann-type Nephritis (setting [7]); 14 mg/day in the data set with Heymann-type Nephritis (setting [8]); 10 mg/day in the data set on Heymann-type Nephritis (setting [9]). Moreover, the “amount of proteinurea, Average” value in data set [3] (Day 1) was 3.4 mg/day; in data set [3] (Day 4) it was 2.1 mg/day; in data set [3] (Day 7) it was 2.0 mg/day; in data set [3] (Day 10) it was 8 mg/day. For the same molecule, the amount of proteinurea with Heymann-type Nephritis (setting [4]) is 123 mg/day and 117 mg/day and 129 mg/day; in the data set with Heymann-type Nephritis (setting [5]), 116 mg/day and 108 mg/day and 121 mg/day; in the data set with Heymann-type Nephritis (setting [6]), 72 mg/day and 63 mg/day and 52 mg/day; with Heymann-type Nephritis (setting [7]), 32 mg/day and 29 mg/day and 22 mg/day; in the data set with Heymann-type Nephritis (setting [8]), 16 mg/day and 12 mg/day and 15 mg/day; in the data set on Heymann-type Nephritis (setting [9]), 10 mg/day and 8 mg/day and 13 mg/day. Besides, the amount of proteinurea in data set [3] (Day 1) was 2.4 mg/day and 4.4 mg/day and 3.2 mg/day; in data set [3] (Day 4), 1.5 mg/day and 2.6 mg/day and 2.1 mg/day; in data set [3] (Day 7) it was 0.9 mg/day and 1.7 mg/day and 3.5 mg/day; in data set [3] (Day 10), 9 mg/day and 8 mg/day and 6 mg/day. The “Anti-Complement Activity Value (50% hemolysis inhibitory activity value)” value in data set [1] (OD413) turned out to be 40 µg/mL. Moreover, the “amount of proteinurea compared with healthy rat” value in data set [3] (from administration of NT to 10 days after, result in words) is recorded as “substantially the same as that of a healthy rat”.
